Measurements published in paper PMC11443494, “Dynamical responses predict a distal site that modulates activity in an antibiotic resistance enzyme” (Chemical Science, 2024).
Read-outs that look alike come from different tables or passages of the source.

Columns and labels:
KPC-2^G89D [1] = target: T1, KPC-2^G89D (Klebsiella pneumoniae, UniProt Q9F663, G88D); test: Steady-state kinetics of β-lactam hydrolysis by KPC-2^G89D; format: biochemical; details: for Kcat / K M: KPC-2^G89D, 25 °C, standard error in parentheses; for Kcat: 10 mM HEPES pH 7.5, 150 mM NaCl, BSA; for K M: pH 7.5; for decrease in catalytic efficiency (kcat/KM): KPC-2^G89D compared to wild-type KPC-2
T1 construct: made in house; host or cells: E. coli
T1 sequence (Q9F663 25-293 G88D): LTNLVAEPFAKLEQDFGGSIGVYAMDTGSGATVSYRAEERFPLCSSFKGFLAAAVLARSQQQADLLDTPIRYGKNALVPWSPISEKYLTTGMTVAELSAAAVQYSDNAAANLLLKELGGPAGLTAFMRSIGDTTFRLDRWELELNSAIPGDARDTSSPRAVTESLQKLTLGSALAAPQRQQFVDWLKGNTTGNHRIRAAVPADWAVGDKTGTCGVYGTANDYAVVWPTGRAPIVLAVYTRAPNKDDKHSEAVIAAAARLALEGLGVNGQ
Description: (§1) Antibiotic hydrolysis was measured at 25 °C in kinetics buffer (10 mM HEPES, pH 7.5 and 150 mM NaCl, 100 μg per mL bovine […] albumin (BSA)). […] Hydrolysis was followed using Greiner half area 96-well plates and a BMG CLARIOstar Plus microplate reader. GraphPad Prism 9.3.1 (GraphPad Software, La Jolla, CA, USA; https://www.graphpad.com) was used to calculate kinetic parameters. Initial rates of antibiotic hydrolysis measured across a range of antibiotic concentrations were used to calculate steady-state parameters according to the Michaelis–Menten equation.

KPC-2 [2] = target: T2, KPC-2 (Klebsiella pneumoniae, UniProt Q9F663); format: biochemical
T2 construct: made in house
T2 sequence (Q9F663 25-293 limits assumed): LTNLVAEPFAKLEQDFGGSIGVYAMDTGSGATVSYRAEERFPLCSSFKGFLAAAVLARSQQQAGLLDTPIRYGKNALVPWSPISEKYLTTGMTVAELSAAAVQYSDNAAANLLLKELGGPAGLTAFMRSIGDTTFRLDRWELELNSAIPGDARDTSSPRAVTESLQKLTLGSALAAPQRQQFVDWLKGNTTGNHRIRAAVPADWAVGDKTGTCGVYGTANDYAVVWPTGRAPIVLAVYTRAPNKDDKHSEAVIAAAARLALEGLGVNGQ
Description: as §1

SHV-38 = test system: SHV-38; parameters: method as in Poirel et al [3]; details: ref Poirel et al [3]; cited from earlier work
SHV-2 = test system: SHV-2; parameters: method as in Liakopoulos et al. [2]; details: ref Liakopoulos et al. [2], cited from earlier work
SHV-1 = test system: SHV-1; parameters: method as in Liakopoulos et al. [2]; details: ND = no detected hydrolysis, ref Liakopoulos et al. [2]; cited from earlier work
KPC-2^G89D [3] = target: T1, KPC-2^G89D; test: Pre-steady-state (stopped-flow tryptophan fluorescence) binding kinetics, KPC-2^G89D
Description: (§2) Pre-steady state kinetics were measured by mixing meropenem with KPC-2 or KPC-2^G89D (both 10 nM concentration) in an Applied Photophysics SX20 stopped-flow spectrometer connected to a photodiode array detector in kinetics buffer. Data were fitted from 0.005 to 0.3 s for both 5 repeats of each of KPC-2 : meropenem and KPC-2^G89D : meropenem. k1 and k−1 were calculated from the gradient and the y-intercept of the kobsvs. substrate concentration curves. KD is calculated using the following equation: [drawing 1]
(§3) Figure S11: Binding kinetics of meropenem calculated using pre-steady state kinetics. a) Kinetic model for binding and hydrolysis of β-lactam substrates by serine β-lactamases. KD is calculated by k-1 / k1. Normalised tryptophan fluorescence curves, averaged over 5 transients, measured from 0.005 s to 0.25 s, for meropenem binding to KPC-2 (b) and KPC-2G89D (both at 10 nM) (c) were used to calculate kobs over a range of concentrations using one phase decay curve fitting. kobs was plotted for KPC-2 (d) and KPC-2G89D (e), and a linear regression used to calculate the y-intercept (k-1) and the slope (k 1). The calculated KD values are 3.7 μM and 5.9 μM for KPC-2 and KPC-2G89D. […]

KPC-2 [4] = target: T2, KPC-2; test: Pre-steady-state (stopped-flow tryptophan fluorescence) binding kinetics, KPC-2
Description: as §2, §3

KPC-2^G89D [5] = target: T1, KPC-2^G89D; test: Inhibition of nitrocefin hydrolysis (IC50), KPC-2^G89D; format: biochemical; details: nitrocefin 200 μM, 10 minute pre-incubation of enzyme and inhibitor
KPC-2 [6] = target: T2, KPC-2; test: Inhibition of nitrocefin hydrolysis (IC50), KPC-2; format: biochemical; details: wild-type KPC-2; nitrocefin 200 μM, 10 minute pre-incubation
Description: Both inhibitors were dissolved in kinetics buffer.

[7] = KPC-2, 25 °C, 10 mM HEPES pH 7.5, 150 mM NaCl, BSA, standard error in parentheses
[8] = KPC-2, 25 °C, pH 7.5, standard error in parentheses

Structure (SMILES) | Kcat (KPC-2^G89D [1]) | K M (KPC-2^G89D [1]) | Kcat (SHV-38) | Km (SHV-38) | Km (SHV-2; ND = no detected hydrolysis) | Vmax (SHV-2) | other results
CC1(C)S[C@@H]2[C@H](NC(=O)[C@H](N)c3ccccc3)C(=O)N2[C@H]1C(=O)O [Ampicillin] | 160 (5.83) s^−1 | 201 (36.3) μM | – | – | – | – | K M (KPC-2 [2]; pH 7.5): 271 (44.7) μM; Kcat (KPC-2 [2]; pH 7.5): 82.3 (3.92) s^−1
CC1(C)S[C@@H]2[C@H](NC(=O)Cc3ccccc3)C(=O)N2[C@H]1C(=O)O [Benzylpenicillin] | – | – | 100 s⁻¹ | 13 µM | 3.8 µM | 100 µM/min | Kcat (SHV-1): 455 s⁻¹; Km (SHV-1): 20 µM
CO/N=C(\C(=O)N[C@@H]1C(=O)N2C(C(=O)O)=C(COC(C)=O)CS[C@H]12)c1csc(N)n1 [Cefotaxime] | – | – | 1 s⁻¹ | 800 µM | 18 µM | 70 µM/min | Kcat (SHV-2; ND = no detected hydrolysis): 11 s⁻¹
CC(C)(O/N=C(\C(=O)N[C@@H]1C(=O)N2C(C(=O)[O-])=C(C[n+]3ccccc3)CS[C@H]12)c1csc(N)n1)C(=O)O [Ceftazidime] | – | – | 110 s⁻¹ | 3800 µM | 24 µM | 6.5 µM/min | –
CC(=O)OCC1=C(C(=O)O)N2C(=O)[C@@H](NC(=O)Cc3cccs3)[C@H]2SC1 [Cephalothin] | – | – | 5 s⁻¹ | 100 µM | – | – | Kcat (SHV-1): 10 s⁻¹; Km (SHV-1): 26 µM
C[C@@H](O)[C@H]1C(=O)N2C(C(=O)O)=C(SCCN=CN)C[C@H]12 [Imipenem] | 2.8 (0.12) s^−1 | 68.9 (10.2) μM | 0.01 s⁻¹ | 24 µM | – | – | decrease in catalytic efficiency (kcat/KM) (KPC-2^G89D [1]): 10 fold; Kcat (KPC-2 [2]; [7]): 22 (0.43) s^−1; K M (KPC-2 [2]; [8]): 72 (3.2) μM
C[C@@H](O)[C@H]1C(=O)N2C(C(=O)O)=C(S[C@@H]3CN[C@H](C(=O)N(C)C)C3)[C@H](C)[C@H]12 [Meropenem] | 0.2 (1 × 10^−2) s^−1 | 7.9 (1.57) μM | – | – | – | – | decrease in catalytic efficiency (kcat/KM) (KPC-2^G89D [1]): 100 fold; Kd (KPC-2^G89D [3]): 5900 nM; Kcat (KPC-2 [2]; [7]): 21.5 (0.12) s^−1; K M (KPC-2 [2]; [8]): 7.1 (1.01) μM; Kd (KPC-2 [4]): 3700 nM
O=C(NNC(=O)[C@@H]1CC[C@@H]2CN1C(=O)N2OS(=O)(=O)O)[C@@H]1CCCNC1 [Zidebactam] | – | – | – | – | – | – | IC50 (KPC-2^G89D [5]): 0.7 nM; IC50 (KPC-2 [6]): 0.06 nM
